Experimental data as given in patent publication US20120245184A1 (Aderans Research Institute, Inc., priority 2006, published 2012).
Structures can show the parent of a compound that is named as a salt. Values belong to the compound of their own block, whether it stands above or below them.

Key:
[1] = test system: C57BL/6 male mice; test: C57BL/6 hair growth after topical dosing; assay type: in vivo, mouse; details: dosed topically once on shaved lower back; visually graded for melanogenesis and hair regrowth
Description: (§1) A mouse model of male pattern baldness is used to investigate the effectiveness of the present compounds for growing hair. Agonists for the sonic hedgehog pathway that act by binding and activating Smoothened were tested in a formulation of 50:30:20 PG:EtOH:water or 5:95 DMSO:acetone vehicle. C57BL/6 male mice (48-52 days old on arrival) from Charles River Labs were used on the study. The mice were housed and cared for according to established procedures. Food and water were ad libitum. On Day 0, the mice were shaved on their lower back, an area of ˜1.5 inches×˜2 inches with Wahl clippers using a surgical blade. On day −3, the mice were anesthetized with isoflurane, their back was rinsed with a pad of 70% ethanol, a placebo pellet or a DHT pellet (2.5 mg 21 day pellet) were implanted subcutaneously between the shoulder blades with a 10 gauge trochar. DHT pellet transplantation results in maintenance of existing hair follicles in the resting (telogen) phase. The hole was stapled with a sterile autoclip and the mice were returned to their cage after awaking. The mice were dosed topically once and visually graded daily, except weekends, for melanogenesis and hair regrowth of fur in the dosed area (Table 4).

[2] = test system: C57BL/6 male mice; test: DHT-induced alopecia (mouse model of male pattern baldness); assay type: in vivo; details: DHT pellet (2.5 mg 21 day) implanted subcutaneously; dosed topically once; visually graded for melanogenesis and hair regrowth
Description: as §1
In the absence of treatment with the present compounds, the follicles remain in telogen rather than following the normal time course of the mouse hair cycle.

[3] = test system: sonic hedgehog pathway; test: Hedgehog reporter assay (gli-luciferase) in TM3 cells; assay type: cell-based, mouse; details: TM3 mouse Leydig cells, gli-luciferase reporter; read-out: TM3 Avg. EC50
Outline: (§2)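 Stable gli-luciferase reporter lines (mouse TM3; human Daoy and HEPM) switched to 0.5% FBS medium, given compounds at 1-5 μM with or without octyl-modified hedgehog protein (1-5 ng/ml) for 24 hrs. Luminescence read; eleven-point 1:3 dose curves, activation expressed as percentage of plate controls (AMAX).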

[4] = test system: sonic hedgehog pathway; test: Hedgehog reporter assay (gli-luciferase) in S12 cells; assay type: cell-based; details: S12 mouse embryonic mesenchymal cells, read-out: S12 Avg. EC50
Outline: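 Stable gli-promoter luciferase reporter S12 mouse embryonic mesenchymal cells, switched to 0.5% FBS and treated with compounds (11-point, 1:3 dilutions) with or without octyl-modified hedgehog protein (1-5 ng/ml) for 24 h; luminescence read. AMAX as percent of high control; EC50 for half-maximal activation; >20% AMAX counted active.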

[5] = test system: sonic hedgehog pathway; test: Human hedgehog reporter assay HEPM-GliLuc (HGL); assay type: cell-based; details: HepM human embryonic palatal mesenchymal cells, gli-luciferase reporter; read-out: HEPM Avg. EC50
Outline: as §2

[6] = test system: sonic hedgehog pathway; test: Human hedgehog reporter assay Daoy-GliLuc (DGL); assay type: cell-based; details: Daoy human medulloblastoma cells, gli-luciferase reporter; read-out: Daoy Avg. EC50
Outline: as §2

Compound: CN[C@H]1CC[C@H](N(Cc2cc(-c3ccccc3)ccc2OC)C(=O)c2sc3ccccc3c2Cl)CC1
C57BL/6 Hair Growth [1]: yes | Androgenetic Alopecia [2]: yes

Compound: CN[C@H]1CC[C@H](N(Cc2cc(-c3cc(C)nc(C)c3)ccc2OC)C(=O)c2sc3ccccc3c2Cl)CC1
C57BL/6 Hair Growth [1]: yes | Androgenetic Alopecia [2]: yes

Compound: CN[C@H]1CC[C@H](N(Cc2cc(-c3ccc(C(N)=O)cc3)ccc2OC)C(=O)c2sc3c(F)ccc(F)c3c2Cl)CC1
C57BL/6 Hair Growth [1]: yes | Androgenetic Alopecia [2]: yes

Compound: CN[C@H]1CC[C@H](N(Cc2cc(-c3ccnc(C)c3)ccc2OC)C(=O)c2sc3ccccc3c2Cl)CC1
C57BL/6 Hair Growth [1]: yes | Androgenetic Alopecia [2]: yes

Compound: CN[C@H]1CC[C@H](N(Cc2cc(-c3ccc(S(C)(=O)=O)cc3)ccc2OC)C(=O)c2sc3ccccc3c2Cl)CC1
C57BL/6 Hair Growth [1]: yes | Androgenetic Alopecia [2]: yes

Compound: CCOc1ccc(-c2ccc(C)nc2)cc1CN(C(=O)c1sc2ccccc2c1Cl)[C@H]1CC[C@H](NC)CC1
C57BL/6 Hair Growth [1]: yes

Compound: CN[C@H]1CC[C@H](N(Cc2cc(-c3ccnc(C(=O)N(C)C)c3)ccc2OC)C(=O)c2sc3c(F)ccc(F)c3c2Cl)CC1
C57BL/6 Hair Growth [1]: yes | Androgenetic Alopecia [2]: yes

Compound: CN[C@H]1CC[C@H](N(Cc2cc(-c3ccncc3)ccc2OC)C(=O)c2sc3ccccc3c2Cl)CC1
C57BL/6 Hair Growth [1]: yes | Androgenetic Alopecia [2]: yes

Compound: CN[C@H]1CC[C@H](N(Cc2cc(-c3ccc(NS(C)(=O)=O)nc3)ccc2OC)C(=O)c2sc3c(F)ccc(F)c3c2Cl)CC1
C57BL/6 Hair Growth [1]: yes

Compound: CCOc1ccc(-c2ccc(C#N)cc2)cc1CN(C(=O)c1sc2ccccc2c1Cl)[C@H]1CC[C@H](NC)CC1
C57BL/6 Hair Growth [1]: yes

Compound: CN[C@H]1CC[C@H](N(Cc2cc(-c3ccnc(C(=O)OC)c3)ccc2OC)C(=O)c2sc3c(F)ccc(F)c3c2Cl)CC1
C57BL/6 Hair Growth [1]: yes | Androgenetic Alopecia [2]: yes

Compound: CN[C@H]1CC[C@H](N(Cc2cc(-c3ccnc(C(=O)O)c3)ccc2OC)C(=O)c2sc3c(F)ccc(F)c3c2Cl)CC1
C57BL/6 Hair Growth [1]: no

Compound: CNC1CCC(N(Cc2cc(-c3ccnc(C(N)=O)c3)ccc2OC)C(=O)c2sc3c(F)ccc(F)c3c2Cl)CC1 (centres unmarked) [Compound 354 (R17), 4-(3-{[(3-Chloro-4,7-difluoro-benzo[b]thiophene-2-carbonyl)-(4-methylamino-cyclohexyl)-amino]-methyl}-4-methoxy-phenyl)-pyridine-2-carboxylic acid amide dihydrochloride]
EC50 [3]: < 50 nM | EC50 [4]: < 50 nM | EC50 [5]: < 50 nM | EC50 [6]: < 50 nM

EC50 [3]: < 50 nM | EC50 [6]: < 50 nM
Compound: CNc1cc(-c2ccc(OC)c(CN(C(=O)c3sc4c(F)ccc(F)c4c3Cl)C3CCC(NC)CC3)c2)ccn1 (centres unmarked) [Compound 357, 3-Chloro-4,7-difluoro-benzo[b]thiophene-2-carboxylic acid[2-methoxy-5-(2-methylamino-pyridin-4-yl)-benzyl]-(4-methylamino-cyclohexyl)-amide bis(trifluoroacetate)]
EC50 [4]: < 50 nM | EC50 [5]: < 50 nM

EC50 [3]: < 50 nM | EC50 [6]: < 50 nM
Compound: CNC1CCC(N(Cc2cc(-c3ccccn3)ccc2OC)C(=O)c2sc3c(F)ccc(F)c3c2Cl)CC1 (centres unmarked) [Compound 367, 3-Chloro-4,7-difluoro-benzo[b]thiophene-2-carboxylic acid (2-methoxy-5-pyridin-2-yl-benzyl)-(4-methylamino-cyclohexyl)-amide dihydrochloride]
EC50 [4]: < 50 nM | EC50 [5]: < 50 nM

EC50 [3]: < 50 nM | EC50 [6]: < 50 nM
Compound: CNC1CCC(N(Cc2cc(-c3ccnc(C(=O)OC)c3)ccc2OC)C(=O)c2sc3c(F)ccc(F)c3c2Cl)CC1 (centres unmarked) [Compound R5, Methyl 4-(3-{[(3-chloro-4,7-difluoro-benzo[b]thiophene-2-carbonyl)-(4-methylamino-cyclohexyl)-amino]-methyl}-4-methoxy-phenyl)-pyridine-2-carboxylate]
EC50 [4]: < 50 nM | EC50 [5]: < 50 nM

Compound: CN[C@H]1CC[C@H](N(Cc2cc(-c3ccc(N)nc3)ccc2OC)C(=O)c2sc3cccc(F)c3c2Cl)CC1 [drawing 702]
C57BL/6 Hair Growth [1]: yes | Androgenetic Alopecia [2]: yes
